Measured values taken from patent US20220050096A1, “ANALYTE-SENSITIVE PROBES AND CONTACT LENS FOR DIAGNOSIS OF OCULAR PATHOLOGIES” (University Of Maryland, Baltimore, priority 2020, published 2022).
Like-named read-outs stand apart in the source and are kept apart here. Values belong to the molecule of their own block, whether it stands above or below them.

Assays:
[1] = Fluorescence anisotropy decays of SG in buffer and sodium probes in Biofinity lenses; type: physicochemical
Description: Three decay time components were required for the intensity decays. Fluorescence anisotropy decays were determined by individual measurements of the polarized intensity decays with corrections for the G-factor. Resolution of multi-exponential decays is not necessary. The average lifetime can be used as a single measurement.
Similar anisotropy decays have been observed for numerous fluorophores bound to large proteins or membranes.

[2] = cited from earlier work; for Kd: read-out: K (mM), binding constant
[3] = Sodium binding affinity (mid-point of response) and sodium-dependent intensity of probes bound to contact lenses; settings: lens not named; read-out: binding constant after addition of linker, hydrophobic moiety and/or binding to the lenses
Description: (§1) Fluorescence Spectroscopic Measurements. Fluorescence intensities and intensity decays were measured using a Varian™ Eclipse 4 spectrofluorometer and a FluoTime300 instrument from PicoQuant™ (Berlin, Germany) and analyzed with the EasyTau™ software. The excitation source was a 473 nm laser diode with a repetition rate of 40 MHZ and a pulse width less than 100 ps. In other embodiments, the excitation source for SG-PL was at 495 nm from a Solea™ supercontinuum laser (PicoQuant™, Germany) and a 375 nm laser diode (PDL 375, PicoQuant™), a repetition rate of 40 MHz, and a pulse width less than 100 ps. Some intensity and lifetime measurements for SG-PL (as indicated) were performed using Alba V confocal fluorescence lifetime microscopy, FLIM (ISS, Urbana, Ill.), with excitation source of a 473 nm laser diode with a repetition rate of 40 MHz and a pulse width near 250 ps.
Sodium Binding Affinity. The sodium affinity of the labeled lenses can be described in terms of the dissociation constant. The dissociation reaction for the probe complexed with Na+ can be written as
P—Na^+↔P+Na^+ (equation 4) […]
Binding affinity curves of SG-PL with sodium in Biofinity™ and MyDay™ lenses were produced by plotting the normalized intensities with respect to the added sodium concentrations. The curves were measured by intensities at peak maximum (FIG. 38A) or amplitude-weighted lifetimes (FIG. 38B). […]

[4] = Chloride-dependent intensity decay analysis of SPQ-C18 in Biofinity contact lenses, phosphate buffer pH 7.2; type: physicochemical
Description: as §1
Intensity decays were measured at the emission maximum with the band of 10 to 20 nm, analyzed in terms of the multi-exponential model:
I(t)=Σαi exp(−t/ti) (equation 1)
where ti are the individual decay times and αi the initial time-zero amplitudes. The mean decay time can be represented in two ways. The average lifetime is given by:
where Σαi=1.0 and Σfi=1.0. The term fi=αi τi is proportional to the fractional contribution of each component to the total intensity decay. The term τi/Σαi τi is the fractional contribution to the steady state emission. Here, we use the amplitude-weighted lifetime given by
which is appropriate when the emission is from a single fluorophore with a changing quantum yield. For a single exponential decay, the lifetime is given by τ=1.0/(knr+Γ) and the quantum yield is given by Q=Γ/(knr+Γ) where knr is the sum of all non-radiative decay rates and Γ is the radiative decay rate. The value of Γ is determined by the molecular extinction coefficient that remains constant under most conditions. For a single type of fluorophore with a constant value of Γ the normalized αi values represent the molecular fraction of each decay time component. The value of αi and τi were determined by non-linear least squares fitting using PicoQuant™ software.
Quenching by Chloride. Collisional quenching occurs, for example, when SPQ-C18 (also referred to as OD-MQB (N-Octadecyl-6-methoxyquinolinium bromide)) has a diffusion collision with a chloride ion. The intensities (I) and lifetimes (6) are analyzed using the Stern-Volmer equation,
SPQ-C18 was synthesized using 6-methoxy quinolinium (SPQ) and 1-bromooctadecane (C18) as described in the art. Lenses were labeled by incubation with 3 ml of a 1 μM solution of SPQ-C18 in methanol-water. SPQ-C18 bound rapidly to the Biofinity™ lenses. […] Unless stated otherwise, all spectral measurements conducted for the present study were performed in 20 mM MOPS buffer, 8 mM KCl, pH 7.2, at room temperature.

anisotropy decay [1]: decayed quickly to zero
Kd [3]: ~100 mM
Structure (SMILES): COc1cc(N2CCOCCOCCN(c3cc(OC)c(NC(=O)c4ccc(-c5c6cc(Cl)c(=O)cc-6oc6cc([O-])c(Cl)cc56)c(C(=O)[O-])c4)cc3OC)CCOCC2)c(OC)cc1NC(=O)c1ccc(-c2c3cc(Cl)c(=O)cc-3oc3cc([O-])c(Cl)cc23)c(C(=O)[O-])c1.C[N+](C)(C)C.C[N+](C)(C)C.C[N+](C)(C)C.C[N+](C)(C)C [SG]
Lifetime (ns), cation-bound form ([2]; cation-bound form (in parentheses)): 2.38 ns
Lifetime (ns), free form ([2]; free form): 3.34 ns
Kd ([2]; listed as Na Green): 6 mM
Kd ([2]; listed as Sodium Green): ~5 mM
Kd [2]: 6 to 10 mM

f1 ([4]; NaCl 0 mM): 0.02
f2 ([4]; NaCl 0 mM): 0.10
f3 ([4]; NaCl 0 mM): 0.88
α1 ([4]; NaCl 0 mM): 0.36
α2 ([4]; NaCl 0 mM): 0.21
α3 ([4]; NaCl 0 mM): 0.44
τ1 ([4]; NaCl 0 mM): 0.69 ns
τ2 ([4]; NaCl 0 mM): 5.15 ns
τ3 ([4]; NaCl 0 mM): 20.74 ns
τf ([4]; NaCl 0 mM): 18.66 ns
τα ([4]; NaCl 0 mM): 10.35 ns
f1 ([4]; NaCl 20 mM): 0.03
f2 ([4]; NaCl 20 mM): 0.13
f3 ([4]; NaCl 20 mM): 0.84
α1 ([4]; NaCl 20 mM): 0.41
α2 ([4]; NaCl 20 mM): 0.21
α3 ([4]; NaCl 20 mM): 0.38
τ1 ([4]; NaCl 20 mM): 0.65 ns
τ2 ([4]; NaCl 20 mM): 4.98 ns
τ3 ([4]; NaCl 20 mM): 17.88 ns
τf ([4]; NaCl 20 mM): 15.65 ns
τα ([4]; NaCl 20 mM): 8.08 ns
f1 ([4]; NaCl 50 mM): 0.03
f2 ([4]; NaCl 50 mM): 0.22
f3 ([4]; NaCl 50 mM): 0.75
α1 ([4]; NaCl 50 mM): 0.38
α2 ([4]; NaCl 50 mM): 0.29
α3 ([4]; NaCl 50 mM): 0.33
τ1 ([4]; NaCl 50 mM): 0.73 ns
τ2 ([4]; NaCl 50 mM): 5.54 ns
τ3 ([4]; NaCl 50 mM): 16.81 ns
τf ([4]; NaCl 50 mM): 13.76 ns
τα ([4]; NaCl 50 mM): 7.38 ns
f1 ([4]; NaCl 90 mM): 0.05
f2 ([4]; NaCl 90 mM): 0.26
f3 ([4]; NaCl 90 mM): 0.68
α1 ([4]; NaCl 90 mM): 0.43
α2 ([4]; NaCl 90 mM): 0.31
α3 ([4]; NaCl 90 mM): 0.26
τ1 ([4]; NaCl 90 mM): 0.75 ns
τ2 ([4]; NaCl 90 mM): 5.33 ns
τ3 ([4]; NaCl 90 mM): 16.41 ns
τf ([4]; NaCl 90 mM): 12.49 ns
τα ([4]; NaCl 90 mM): 6.18 ns
f1 ([4]; NaCl 140 mM): 0.06
f2 ([4]; NaCl 140 mM): 0.31
f3 ([4]; NaCl 140 mM): 0.62
α1 ([4]; NaCl 140 mM): 0.44
α2 ([4]; NaCl 140 mM): 0.33
α3 ([4]; NaCl 140 mM): 0.22
τ1 ([4]; NaCl 140 mM): 0.82 ns
τ2 ([4]; NaCl 140 mM): 5.43 ns
τ3 ([4]; NaCl 140 mM): 16.26 ns
τf ([4]; NaCl 140 mM): 11.91 ns
τα ([4]; NaCl 140 mM): 5.81 ns
f1 ([4]; NaCl 200 mM): 0.08
f2 ([4]; NaCl 200 mM): 0.34
f3 ([4]; NaCl 200 mM): 0.58
α1 ([4]; NaCl 200 mM): 0.48
α2 ([4]; NaCl 200 mM): 0.34
α3 ([4]; NaCl 200 mM): 0.20
τ1 ([4]; NaCl 200 mM): 0.77 ns
τ2 ([4]; NaCl 200 mM): 4.92 ns
τ3 ([4]; NaCl 200 mM): 15.93 ns
τf ([4]; NaCl 200 mM): 11.03 ns
τα ([4]; NaCl 200 mM): 4.90 ns
Structure (SMILES): CCCCCCCCCCCCCCCCCC[n+]1cccc2cc(OC)ccc21 [SPQ-C18, N-Octadecyl-6-methoxyquinolinium bromide]
